Source: PMC12041661, “Dual MNK/VEGFR2 Inhibitor JDB153 Enhances Immunotherapeutic Efficiency and Chemosensitivity in Lung Cancer” (MedComm, 2025)

Tests used:
[1] = target: T1, VEGFR2 (Homo sapiens, UniProt P35968); assay: radiometric kinase assay; assay type: biochemical
T1 construct: gene KDR

[2] = target: T2, MNK1 (Homo sapiens, UniProt Q9BUB5); assay: radiometric kinase assay; assay type: biochemical
T2 construct: gene MKNK1
T2 sequence (Q9BUB5 whole entry): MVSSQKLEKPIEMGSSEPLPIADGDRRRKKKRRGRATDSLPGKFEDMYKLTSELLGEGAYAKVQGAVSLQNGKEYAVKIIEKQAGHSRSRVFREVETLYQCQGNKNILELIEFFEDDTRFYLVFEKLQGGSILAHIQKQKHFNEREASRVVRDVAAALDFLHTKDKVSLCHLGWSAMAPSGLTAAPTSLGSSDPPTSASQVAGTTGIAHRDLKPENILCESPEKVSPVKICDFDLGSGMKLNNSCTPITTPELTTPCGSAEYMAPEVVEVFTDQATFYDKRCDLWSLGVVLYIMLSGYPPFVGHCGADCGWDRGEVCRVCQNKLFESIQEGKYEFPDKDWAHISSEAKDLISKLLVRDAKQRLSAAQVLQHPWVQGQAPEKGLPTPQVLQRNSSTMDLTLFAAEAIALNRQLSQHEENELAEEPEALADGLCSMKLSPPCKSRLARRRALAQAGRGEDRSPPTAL

T1 sequence (P35968 20-1356): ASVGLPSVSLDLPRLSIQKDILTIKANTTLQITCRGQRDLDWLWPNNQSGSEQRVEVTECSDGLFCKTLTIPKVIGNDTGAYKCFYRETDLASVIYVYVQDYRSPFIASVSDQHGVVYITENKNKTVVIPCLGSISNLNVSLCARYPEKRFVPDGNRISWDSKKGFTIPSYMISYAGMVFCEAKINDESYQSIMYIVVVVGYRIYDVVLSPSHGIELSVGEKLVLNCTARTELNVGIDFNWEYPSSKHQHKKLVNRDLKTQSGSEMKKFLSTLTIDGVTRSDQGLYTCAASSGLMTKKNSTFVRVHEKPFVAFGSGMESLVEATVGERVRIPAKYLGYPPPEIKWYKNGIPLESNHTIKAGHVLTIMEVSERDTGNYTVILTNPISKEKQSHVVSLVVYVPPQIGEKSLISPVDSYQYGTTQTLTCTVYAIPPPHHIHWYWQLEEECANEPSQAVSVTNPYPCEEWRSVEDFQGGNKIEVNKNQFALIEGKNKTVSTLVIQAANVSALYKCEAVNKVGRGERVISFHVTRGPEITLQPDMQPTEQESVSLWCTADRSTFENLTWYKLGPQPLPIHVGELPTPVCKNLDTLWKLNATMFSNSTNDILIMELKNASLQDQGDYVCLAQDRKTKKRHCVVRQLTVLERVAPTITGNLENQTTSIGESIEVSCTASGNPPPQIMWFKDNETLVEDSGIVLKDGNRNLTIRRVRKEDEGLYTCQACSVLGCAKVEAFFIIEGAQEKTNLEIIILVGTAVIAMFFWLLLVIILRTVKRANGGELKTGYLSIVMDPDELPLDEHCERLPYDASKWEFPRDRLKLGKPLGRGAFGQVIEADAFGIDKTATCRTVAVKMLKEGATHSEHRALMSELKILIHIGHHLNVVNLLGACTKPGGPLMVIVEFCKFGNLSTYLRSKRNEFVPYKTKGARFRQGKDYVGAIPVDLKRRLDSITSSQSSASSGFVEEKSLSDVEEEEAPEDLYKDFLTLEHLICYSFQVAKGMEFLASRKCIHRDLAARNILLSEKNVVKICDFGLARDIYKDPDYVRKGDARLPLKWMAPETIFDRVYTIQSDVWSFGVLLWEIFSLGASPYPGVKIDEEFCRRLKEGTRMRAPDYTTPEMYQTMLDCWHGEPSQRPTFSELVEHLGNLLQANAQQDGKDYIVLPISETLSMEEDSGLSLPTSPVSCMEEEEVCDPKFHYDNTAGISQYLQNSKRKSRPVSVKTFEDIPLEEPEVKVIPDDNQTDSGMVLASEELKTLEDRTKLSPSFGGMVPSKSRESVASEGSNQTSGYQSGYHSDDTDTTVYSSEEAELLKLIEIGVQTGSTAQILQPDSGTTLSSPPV

IC50 [1]: 3 nM
IC50 [2]: 26.6 nM
SMILES: Cc1cc(Nc2ncnn3cc(OCCN4CCC(F)(F)C4)c(C)c23)c(=O)n2c1C(=O)NC21CCCC1 [JDB153]
